Source: US20240174723A1, “STAPLED ANTIMICROBIAL PEPTIDES (STAMPS) AND USES THEREOF” (Lytica Therapeutics, Inc., priority 2021, published 2024)
Values after ≈ are worked out from the molar mass of the structure shown. Where two headings read alike, the source gives them in different places. Positions of bridges follow the written chain, without caps; N, C: chain ends. Non-standard residues stand in square brackets, D forms with d. Residues, ends and D or L forms follow the SMILES beside them. S5 = C=CCCC[C@](C)(N)C(=O)O

Legend:
P. aeruginosa = type: cell-based, Pseudomonas aeruginosa
In short: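 Broth microdilution adapted from CLSI in MHB or cation-adjusted MHB; log-phase P. aeruginosa at 5×10^5 CFU/ml final with serially diluted stapled peptides. Incubated 20-24 h at 37 °C; MIC is the lowest concentration without visible growth.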

S. aureus = type: cell-based, Staphylococcus aureus
In short: (§1)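 Broth microdilution adapted from CLSI in Mueller-Hinton broth or cation-adjusted MHB. Overnight 37 °C cultures were regrown 3-4 h, then added to serially diluted peptide at a final 5×10^5 CFU/ml. After 20-24 h at 37 °C, MIC was the lowest peptide concentration with no visible growth.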

in vitro [1] = type: cell-based; settings: human
In short: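 HepG2 cells in EMEM with 10% FBS, allowed 4 h to attach, then exposed to serial dilutions of StAMPs (from a 5 mg/mL water stock) or vehicle. After 48 h at 37 °C, viability read by CellTiter-Glo luminescence.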

A. baumannii = type: cell-based, Acinetobacter baumannii
In short: as §1

in vitro [2] = type: cell-based; settings: human; remark: listed apart in the source
Experimental: Cell culture: RPTEC were maintained in MEM media supplemented with growth factors. HEPG2 cell line was maintained in Eagle's Minimum Essential Medium (EMEM) supplemented with fetal bovine serum to a final concentration of 10%.
90 minute cytotoxicity assay: Cells were plated in a 96-well format, and after overnight incubation, media was replaced with fresh media. Serial dilutions of StAMPs from a 5 mg/mL water stock, or vehicle, were added to the cells in a final volume of 100 μl. After incubating at 37° C. for 90 min, 50 μl of cell culture media was transferred to a clear 96-well plate, incubated with 50 μl of lactate dehydrogenase (LDH) assay reagent for 10 min, and absorbance measured at 490 nm on a microplate reader.
Renal toxicity was measured after 90 minutes of incubation, while liver toxicity was measured after 48 hours of incubation with StAMPs. N/A=not tested. The following apply to all peptides (i.e., StAMPs) listed in Tables A-C: Crosslinks (X^1—X^2 and X^3—X^4): (alk); N-terminus: —NH2; C-terminus: amidated with —NH2; counterion: Cl^−. The following apply to all peptides (i.e., StAMPs) listed in Table D: Crosslinks (X^1—X^2 and X^3—X^4): (alk); N-terminus: —NH2; C-terminus: as shown in table; counterion: Cl^−.
StAMP Micelle Formulation: DSPE-MPEG(2000) was suspended in buffered saline at 50-100 mg/mL overnight. StAMP stock solutions at 5-20 mg/mL in buffered saline were prepared and equal volumes of micelle and StAMP stock solution were mixed at the desired StAMP:Lipid ratio. Suspensions were allowed to sit for 5-10 minutes at room temperature before being used in in vitro and in vivo assays.
In Table E, the StAMP is StAMP 4 (Table A) and “Lipid”=DSPE-MPEG(2000).

E. coli = type: cell-based, Escherichia coli
In short: as §1

K. pneumoniae = type: cell-based, Klebsiella pneumoniae
In short: as §1

[3] = Inhibitory Concentration at 50% Cytotoxicity (IC50) Human Liver Cells (HepG2)

Row | Minimum Inhibitory Concentration (MIC) P. aeruginosa (P. aeruginosa) | Minimum Inhibitory Concentration (MIC) S. aureus (S. aureus) | Minimum Inhibitory Concentration (MIC) A. baumannii (A. baumannii) | IC50 at 90 min (in vitro [2]) | Minimum Inhibitory Concentration (MIC) E. coli (E. coli) | Minimum Inhibitory Concentration (MIC) K. pneumoniae (K. pneumoniae) | SMILES | IC50 at 48 hours (in vitro [1]; [3]) | IC50 at 48 hours (in vitro [1]; 48 hours of incubation, read-out: Inhibitory Concentration at 50% Cytotoxicity (IC50) Human Liver Cells (HepG2)) | IC50 at 90 min (in vitro [2]; 90 minutes of incubation, read-out: Inhibitory Concentration at 50% Cytotoxicity (IC50) Human Renal Proximal Tubule Epithelial Cells (RPTEC))
1 | 16 µg/mL | >64 µg/mL | 4 µg/mL | > 200 µg/mL | 12 µg/mL | >64 µg/mL | CC(C)[C@@H]1NC(=O)[C@@](C)(NC(=O)[C@H](C)NC(=O)[C@H](CCCCN)NC(=O)CNC(=O)[C@H](Cc2ccccc2)NC(=O)[C@H](CCCCN)NC(=O)[C@H](CCCCN)NC(=O)[C@H](CCCCN)NC(=O)[C@H](CO)NC(=O)[C@H](Cc2c[nH]cn2)NC(=O)[C@]2(C)CCCC=CCCC[C@](C)(NC(=O)CN)C(=O)NCC(=O)N[C@@H](CCCCN)C(=O)N[C@@H](Cc3ccccc3)C(=O)N2)CCCC=CCCC[C@@](C)(C(=O)N[C@@H](C)C(=O)N[C@@H](CCCCN)C(=O)N[C@@H](CCCCN)C(N)=O)NC(=O)[C@H](CC(=O)O)NC(=O)CNC1=O [compound 16] (H-G[S5]GKF[S5]HSKKKFGKA[S5]VGD[S5]AKK-NH2; staple 2-6, 16-20) | > 200 µg/mL |  | 
2 | 8 µg/mL | >64 µg/mL | 4 µg/mL | 117 µg/mL (≈ 45.5 µM) | 4 µg/mL | 16 µg/mL | CC(C)[C@@H]1NC(=O)[C@@](C)(NC(=O)[C@H](C)NC(=O)[C@H](CCCCN)NC(=O)CNC(=O)[C@H](Cc2c[nH]c3ccccc23)NC(=O)[C@H](CCCCN)NC(=O)[C@H](CCCCN)NC(=O)[C@H](CCCCN)NC(=O)[C@H](CO)NC(=O)[C@H](Cc2c[nH]cn2)NC(=O)[C@]2(C)CCCC=CCCC[C@](C)(NC(=O)CN)C(=O)NCC(=O)N[C@@H](CCCCN)C(=O)N[C@@H](Cc3ccccc3)C(=O)N2)CCCC=CCCC[C@@](C)(C(=O)N[C@@H](C)C(=O)N[C@@H](CCCCN)C(=O)N[C@@H](CCCCN)C(N)=O)NC(=O)[C@H](CCC(=O)O)NC(=O)CNC1=O [compound 68] (H-G[S5]GKF[S5]HSKKKWGKA[S5]VGE[S5]AKK-NH2; staple 2-6, 16-20) | 129 µg/mL (≈ 50.2 µM) |  | 
3 | 4 µg/mL | >64 µg/mL | 4 µg/mL | ~200 µg/mL (≈ 70.2 µM) | 4 µg/mL | 8 µg/mL | CC(C)[C@@H]1NC(=O)[C@H](C(C)C)NC(=O)[C@@](C)(NC(=O)[C@H](C)NC(=O)[C@H](CCCCN)NC(=O)CNC(=O)[C@H](Cc2ccccc2)NC(=O)[C@H](CCCCN)NC(=O)[C@H](CCCCN)NC(=O)[C@H](CCCCN)NC(=O)[C@H](CCCCN)NC(=O)[C@H](CCCCN)NC(=O)[C@]2(C)CCCC=CCCC[C@](C)(NC(=O)CN)C(=O)NCC(=O)N[C@@H](CCCCN)C(=O)N[C@@H](Cc3ccccc3)C(=O)N2)CCCC=CCCC[C@@](C)(C(=O)N[C@@H](C)C(=O)N[C@@H](CCCCN)C(=O)N[C@@H](CCCCN)C(=O)NCC(=O)NCC(=O)N[C@@H](CCC(=O)O)C(N)=O)NC(=O)[C@H](CCC(=O)O)NC1=O [compound 32] (H-G[S5]GKF[S5]KKKKKFGKA[S5]VVE[S5]AKKGGE-NH2; staple 2-6, 16-20) | > 200 µg/mL |  | 

The remaining lines, values behind:

Row | SMILES | Minimum Inhibitory Concentration (MIC) P. aeruginosa (P. aeruginosa) | Minimum Inhibitory Concentration (MIC) S. aureus (S. aureus) | Minimum Inhibitory Concentration (MIC) A. baumannii (A. baumannii) | IC50 at 90 min (in vitro [2]) | Minimum Inhibitory Concentration (MIC) E. coli (E. coli) | Minimum Inhibitory Concentration (MIC) K. pneumoniae (K. pneumoniae) | IC50 at 48 hours (in vitro [1]; [3]) | IC50 at 48 hours (in vitro [1]; 48 hours of incubation, read-out: Inhibitory Concentration at 50% Cytotoxicity (IC50) Human Liver Cells (HepG2)) | IC50 at 90 min (in vitro [2]; 90 minutes of incubation, read-out: Inhibitory Concentration at 50% Cytotoxicity (IC50) Human Renal Proximal Tubule Epithelial Cells (RPTEC))
4 | CC(C)[C@@H]1NC(=O)[C@@](C)(NC(=O)[C@H](C)NC(=O)[C@H](CCCCN)NC(=O)CNC(=O)[C@H](Cc2ccccc2)NC(=O)[C@H](CCCCN)NC(=O)[C@H](CCCCN)NC(=O)[C@H](CCCCN)NC(=O)[C@@H](NC(=O)[C@H](Cc2c[nH]cn2)NC(=O)[C@]2(C)CCCC=CCCC[C@](C)(NC(=O)CN)C(=O)NCC(=O)N[C@@H](CCCCN)C(=O)N[C@@H](Cc3ccccc3)C(=O)N2)[C@@H](C)O)CCCC=CCCC[C@@](C)(C(=O)N[C@@H](C)C(=O)N[C@@H](CCCCN)C(=O)N[C@@H](CCCCN)C(N)=O)NC(=O)[C@H](CCC(=O)O)NC(=O)CNC1=O [compound 8] (H-G[S5]GKF[S5]HTKKKFGKA[S5]VGE[S5]AKK-NH2; staple 2-6, 16-20) | 8 µg/mL | >64 µg/mL | 4 µg/mL | > 200 µg/mL | 8 µg/mL | >64 µg/mL | > 200 µg/mL |  | 
5 | CC(C)[C@@H]1NC(=O)[C@@](C)(NC(=O)[C@H](C)NC(=O)[C@H](CCCCN)NC(=O)CNC(=O)[C@H](Cc2ccccc2)NC(=O)[C@H](CCCCN)NC(=O)[C@H](CCCCN)NC(=O)[C@H](CCCCN)NC(=O)[C@H](CCCCN)NC(=O)[C@H](CCCCN)NC(=O)[C@]2(C)CCCC=CCCC[C@](C)(NC(=O)CN)C(=O)NCC(=O)N[C@@H](CCCCN)C(=O)N[C@@H](Cc3ccccc3)C(=O)N2)CCCC=CCCC[C@@](C)(C(=O)N[C@@H](C)C(=O)N[C@@H](CCCCN)C(=O)N[C@@H](CCCCN)C(=O)NCC(=O)NCC(=O)N[C@@H](CCC(=O)O)C(N)=O)NC(=O)[C@H](CCC(=O)O)NC(=O)[C@@H](Cc2ccccc2)NC1=O [compound 34] (H-G[S5]GKF[S5]KKKKKFGKA[S5]V[dF]E[S5]AKKGGE-NH2; staple 2-6, 16-20) | 4 µg/mL | >64 µg/mL | 2 µg/mL |  | 2 µg/mL | 2 µg/mL |  | 109 µg/mL (≈ 37.6 µM) | 96 µg/mL (≈ 33.1 µM)
6 | CC(C)[C@@H]1NC(=O)[C@@](C)(NC(=O)[C@H](C)NC(=O)[C@H](CCCCN)NC(=O)CNC(=O)[C@H](Cc2ccccc2)NC(=O)[C@H](CCCCN)NC(=O)[C@H](CCCCN)NC(=O)[C@H](CCCCN)NC(=O)[C@H](CO)NC(=O)[C@H](Cc2c[nH]cn2)NC(=O)[C@]2(C)CCCC=CCCC[C@](C)(NC(=O)CN)C(=O)NCC(=O)N[C@@H](CCCCN)C(=O)N[C@@H](Cc3ccccc3)C(=O)N2)CCCC=CCCC[C@@](C)(C(=O)N[C@@H](C)C(=O)N[C@@H](CCCCN)C(=O)N[C@@H](Cc2c[nH]c3ccccc23)C(N)=O)NC(=O)[C@H](CCC(=O)O)NC(=O)CNC1=O [compound 67] (H-G[S5]GKF[S5]HSKKKFGKA[S5]VGE[S5]AKW-NH2; staple 2-6, 16-20) | 16 µg/mL | 16 µg/mL | 4 µg/mL | 27 µg/mL (≈ 10.4 µM) | 4 µg/mL | 8 µg/mL | 52 µg/mL (≈ 20.1 µM) |  | 
